These results are taken from PMC2810346 (Journal of the American Chemical Society, 2010).

Peptide text beside a SMILES is read from it.

One may read the Kd as the constant that tells how readily two partners part at equilibrium.

For data set [1], the target named is GST-p300 (p300 CH1 domain) (Homo sapiens, UniProt Q09472). Put plainly: Isothermal titration microcalorimetry. The data set is classed as binding. The note with it: for affinity for GST-p300 (in words): isothermal titration microcalorimetry. On the technique in general: In ITC the heat of successive injections is recorded.
Data set [2] is classed as physicochemical. As to conditions: 10% trifluoroethanol in phosphate buffered saline (pH 6.3); for % helicity: circular dichroism, estimated from mean residue ellipticity at 222 nm.
For data set [3], the system named is cell density and population doubling. Put plainly: Cell viability assay. The class given is cell-based. The note with it: monitored up to 72 h, 1 μM peptide, 200 nM chetomin.
Data set [4] concerns GST-p300; CH1 domains of CBP (or p300). Nature of the data set: CD spectrum of GST-p300 / CH1 structural change on addition of compound. As to conditions: circular dichroism of GST-p300 with HBS 2 added.
Data set [5] deals with HIF-1α induced transcription of VEGF gene in HeLa cells. The class given is cell-based. The note with it: qRT-PCR, hypoxic conditions (DFO), 12 and 24 h incubation. A general note: In qPCR the cycle at which signal appears reflects the starting amount.
For data set [6] the test system is unchanged. The note with it: ref [18]; cited from earlier work.

Chain of GST-p300 (p300 CH1 domain) (Q09472 331-417 limits assumed): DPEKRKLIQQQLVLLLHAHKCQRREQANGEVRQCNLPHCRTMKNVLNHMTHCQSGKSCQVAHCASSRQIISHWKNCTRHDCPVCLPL

Take `C[C@H](NC(=O)[C@H](CC(N)=O)NC(=O)[C@H](Cc1ccc(O)cc1)NC(=O)[C@H](CCC(=O)O)NC(=O)[C@H](CS)NC(=O)[C@H](CC(=O)O)NC(=O)[C@H](C)N1C/C=C/CCC(=O)N[C@@H]([C@@H](C)O)C(=O)N[C@@H](C)C1=O)C(=O)N[C@@H](CCCNC(=N)N)C(N)=O` [compound 2]: the “affinity for GST-p300 (in words)” value in data set [1] is on record as “does not have a detrimental effect on the ability of HBS 2 to bind GST-p300”. Further, the “solution conformation by CD (in words)” value in data set [2] (listed as HBS 2) is “more helical than HBS 1”. In data set [2], the “% helicity” value is reported as 53%. Moreover, the “cytotoxicity (in words)” value in data set [3] is “does not display significant cytotoxicity”. Further, the “effect on CD spectrum of GST-p300 (in words)” value in data set [4] is on record as “does not alter the CD spectrum of GST-p300”.
Take `CC(=O)N[C@H](C(=O)N[C@@H](C)C(=O)N[C@@H](C)C(=O)N[C@@H](CC(=O)O)C(=O)N[C@@H](CS)C(=O)N[C@@H](CCC(=O)O)C(=O)N[C@@H](Cc1ccc(O)cc1)C(=O)N[C@@H](CC(N)=O)C(=O)N[C@@H](C)C(=O)N[C@@H](CCCNC(=N)N)C(=O)O)[C@@H](C)O` [compound 4] (Ac-TAADCEYNAR-OH): in data set [1], the dissociation constant Kd was 825 ± 50 nM.
Consider `C[C@H](NC(=O)[C@H](CC(N)=O)NC(=O)[C@H](Cc1ccc(O)cc1)NC(=O)[C@H](CCC(=O)O)NC(=O)[C@H](CS)NC(=O)[C@H](CC(=O)O)NC(=O)[C@H](C)N1C/C=C/CCC(=O)N[C@@H]([C@@H](C)O)C(=O)N[C@@H](C)C1=O)C(N)=O` [compound 1], for which the “affinity for GST-p300 (in words)” value in data set [1] is reported as “submicromolar affinity”. The “% helicity” value in data set [2] is reported as 40%. Besides, the “inhibition of VEGF transcription (in words)” value in data set [5] is on record as “did not show measurable inhibition of transcription”.
As for `CN1C(=O)[C@]2(Cc3cn([C@]45C[C@@]67SS[C@@](CO)(C(=O)N6[C@H]4Nc4ccccc45)N(C)C7=O)c4ccccc34)SS[C@@]1(CO)C(=O)N2C` [chetomin], the “inhibition of VEGF transcription, literature (in words)” value in data set [6] is reported as “known potent inhibitor of VEGF transcription”.
